Measurements published in ChEMBL document CHEMBL3352473, “Synthesis and evaluation of imidazole-4,5- and pyrazine-2,3-dicarboxamides targeting dengue and yellow fever virus” (Eur J Med Chem, 2014).

Key:
[1] = Selectivity index, ratio of CC50 for green monkey Vero-B cells to EC50 for Dengue virus infected in green monkey Vero-B cells; type: toxicity, cell-based; settings: read-out: Ratio CC50/EC50
[2] = Selectivity index, ratio of CC50 for green monkey Vero-B cells to EC50 for Yellow fever virus infected in green monkey Vero-B cells; type: toxicity, cell-based; settings: read-out: Ratio CC50/EC50

Compound | selectivity ratio [1] | selectivity ratio [2]
Cc1ccc(NC(=O)c2[nH]cnc2C(=O)Nc2ccc(C)cc2-c2ccco2)cc1 | 36.2 | –
Cc1ccc(NC(=O)c2nc[nH]c2C(=O)NCCc2ccc(F)cc2)c(-c2ccco2)c1 | 30.9 | –
O=C(NCc1ccc(-c2ccncc2)cc1)c1nc[nH]c1C(=O)Nc1ccc(F)cc1 | 1 | 1
Cc1ccc(NC(=O)c2nccnc2C(=O)NCc2ccccc2-c2ccncc2)cc1 | 2.04 | 1.7
O=C(NCc1ccc(-c2ccncc2)cc1)c1nccnc1C(=O)Nc1ccc(F)cc1 | > 125 | 16
Cc1ccc(NC(=O)c2nccnc2C(=O)Nc2ccccc2-c2cccnc2)cc1 | 8.8 | 1
O=C(NCc1ccc(-c2cccnc2)cc1)c1nccnc1C(=O)Nc1ccc(F)cc1 | 38.5 | 13
O=C(NCc1ccc(-c2cccnc2)cc1)c1nc[nH]c1C(=O)Nc1ccc(F)cc1 | 2.85 | 10
Cc1cnc(NC(=O)c2[nH]cnc2C(=O)Nc2ccccc2)c(-c2ccc(C)s2)c1 | 0.22 | 0.97
O=C(NCc1ccccc1-c1ccncc1)c1nc[nH]c1C(=O)Nc1ccc(F)cc1 | 26 | 31
Cc1ccc(NC(=O)c2nc[nH]c2C(=O)Nc2ccc(F)cc2)c(-c2cc(C)n[nH]2)c1 | 48 | 34.5
Cc1ccc(NC(=O)c2nccnc2C(=O)Nc2ccc(C)cc2-c2ccncc2)cc1 | 10 | 3.8
Cc1ccc(NC(=O)c2nc[nH]c2C(=O)Nc2ccc(F)cc2)c(-c2ccsc2)c1 | 2.4 | 1
O=C(Nc1ccc(F)cc1)c1nccnc1C(=O)Nc1ccccc1-c1cccnc1 | 5.2 | 2.5
O=C(NCc1ccccc1-c1ccsc1)c1nc[nH]c1C(=O)Nc1ccc(F)cc1 | 1.95 | 13.2
Cc1cc(-c2ccccc2NC(=O)c2nc[nH]c2C(=O)Nc2ccc(F)cc2)[nH]n1 | 3.6 | 67
O=C(NCc1ccccc1-c1ccncc1)c1nccnc1C(=O)Nc1ccc(F)cc1 | 2.9 | –
O=C(Nc1ccc(F)cc1)c1nccnc1C(=O)Nc1ccccc1-c1ccncc1 | 10.4 | 15
Cc1ccc(NC(=O)c2nc[nH]c2C(=O)Nc2ccccc2)c(-c2ccsc2)c1 | 1 | 13
Cc1ccc(NC(=O)c2nccnc2C(=O)Nc2ccc(F)cc2)c(-c2cccnc2)c1 | > 125 | 9
Cc1ccc(NC(=O)c2nccnc2C(=O)NCc2ccc(-c3ccncc3)cc2)cc1 | 4.5 | 3
Cc1ccc(NC(=O)c2nccnc2C(=O)Nc2ccccc2-c2ccncc2)cc1 | 26 | 10
Cc1ccc(NC(=O)c2nccnc2C(=O)Nc2ccc(F)cc2)c(-c2ccncc2)c1 | 1 | 2.6
O=C(NCc1ccc(-c2ccsc2)cc1)c1nc[nH]c1C(=O)Nc1ccc(F)cc1 | 0.6 | 4.13
Cc1ccc(NC(=O)c2[nH]cnc2C(=O)Nc2ccc(C)cc2-c2ccsc2)cc1 | 24.5 | 1
Cc1ccc(NC(=O)c2nccnc2C(=O)Nc2ccc(C)cc2-c2cccnc2)cc1 | 4.5 | 4.1
Cc1ccc(NC(=O)c2nccnc2C(=O)NCc2ccc(-c3cccnc3)cc2)cc1 | 17.2 | 1.7
Cc1ccc(NC(=O)c2nc[nH]c2C(=O)Nc2ccc(F)cc2)c(-c2ccco2)c1 | 1 | –
Cc1ccc(NC(=O)c2nc[nH]c2C(=O)NCc2ccccc2)c(-c2ccco2)c1 | 1 | –
